target: T1, A2AR (hADORA2A-HEK293 cells) (Homo sapiens, UniProt P29274); test: functional cAMP production assay: NECA stimulation of cAMP production and its inhibition by A2AR antagonists; type: cell-based; settings: A2AR-expressing HEK293 cells (hADORA2A-HEK293); NECA at EC80; TR-FRET cAMP readout; read-out: A2AR Potency (IC50, inhibition of NECA-stimulated cAMP production)
T1 construct: expressed in transfected cells; host or cells: HEK293 (hADORA2A-HEK293)
Procedure: The antagonistic activities of the triazolotriazine derivatives of the present invention were measured in a functional cAMP production assay. The assay consists of NECA stimulation of cAMP production and its inhibition by A2AR antagonists in A2AR-expressing HEK293 cells (hADORA2A-HEK293). All cells were cultured in complete medium at 37° C. in 5% CO2. The cells were detached with pancreatin and collected at 200 g for 5 min. After resuspending the cells in fresh complete medium, the cell viability is counted using the trypan blue exclusion method. […] After the cells were diluted with Hank's buffered saline solution containing HEPES (5 mM), BSA stabilizer (0.1%) and […] Rolipram (10 μM), cells were loaded into white opaque 384-well plates (˜500 cells/well, 10 μl/well) and incubated with test compound at a suitable concentration range (11 concentrations) for 20 min at room temperature. Then the A2A receptor agonist NECA (final concentration=EC80, which was determined in the same experiment slightly earlier) was added to the sample and the mixture was incubated again for 30 min at 37° C. […] The inhibition rate (%) was calculated according to the following formula. The IC50 values were calculated from concentration-inhibition (%) curves after log transformation.

T1 sequence (P29274 whole entry): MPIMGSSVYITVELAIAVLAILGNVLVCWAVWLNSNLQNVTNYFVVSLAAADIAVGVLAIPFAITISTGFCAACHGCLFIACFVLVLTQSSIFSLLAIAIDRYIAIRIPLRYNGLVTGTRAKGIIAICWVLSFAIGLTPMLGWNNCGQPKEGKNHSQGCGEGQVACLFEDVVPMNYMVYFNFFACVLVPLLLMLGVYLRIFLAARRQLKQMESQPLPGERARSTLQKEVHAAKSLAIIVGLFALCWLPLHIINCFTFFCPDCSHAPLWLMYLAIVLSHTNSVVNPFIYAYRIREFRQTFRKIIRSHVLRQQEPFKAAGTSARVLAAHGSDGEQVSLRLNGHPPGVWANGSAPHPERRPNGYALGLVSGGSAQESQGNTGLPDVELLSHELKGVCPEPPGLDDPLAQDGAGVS

Row | IC50 | Compound
1 | 25.3 nM | CN(C)[C@H]1CCN(CCOc2ccc(CCNc3nc(N)n4nc(-c5ccco5)nc4n3)cc2)C1 [Example 154, (S)-N5-(4-(2-(3-(Dimethylamino)pyrrolidin-1-yl)ethoxy)phenethyl)-2-(furan-2-yl)-[1,2,4]triazolo[1,5-a][1,3,5]triazine-5,7-diamine]
2 | 17.5 nM | CN(C)C1CN(CCOc2ccc(CCNc3nc(N)n4nc(-c5ccco5)nc4n3)cc2)C1 [Example 162, N5-(4-(2-(3-(Dimethylamino)azetidin-1-yl)ethoxy)phenethyl)-2-(furan-2-yl)-[1,2,4]triazolo[1,5-a][1,3,5]triazine-5,7-diamine]
3 | 8.96 nM | Nc1nc(NCCc2ccc(OCC(F)(F)F)cc2)nc2nc(-c3ccco3)nn12 [Example 207, N5-(4-(2,2,2-Trifluoroethoxy)phenethyl)-2-(furan-2-yl)-[1,2,4]triazolo[1,5-a][1,3,5]triazine-5,7-diamine]
4 | 35.2 nM | CN(C)[C@@H]1CCN(CCOc2ccc(CCNc3nc(N)n4nc(-c5ccco5)nc4n3)cc2)C1 [Example 214, N5-((R)-4-(2-(3-(Dimethylamino)pyrrolidin-1-yl)ethoxy)phenethyl)-2-(furan-2-yl)-[1,2,4]triazolo[1,5-a][1,3,5]triazine-5,7-diamine]
5 | 20 nM | Nc1nc(NCCc2ccc(NC(=O)CCN3CCCC3)cc2)nc2nc(-c3ccco3)nn12 [Example 226, N-(4-(2-((7-Amino-2-(furan-2-yl)-[1,2,4]triazolo[1,5-a][1,3,5]triazin-5-yl)amino)ethyl)-phenyl)-3-(pyrrolidin-1-yl)propanamide]
6 | 25.3 nM | CN1CCN(CCC(=O)Nc2ccc(CCNc3nc(N)n4nc(-c5ccco5)nc4n3)cc2)CC1 [Example 229, N-(4-(2-((7-Amino-2-(furan-2-yl)-[1,2,4]triazolo[1,5-a][1,3,5]triazin-5-yl)amino)ethyl)-phenyl)-3-(4-methylpiperazin-1-yl)propanamide]
7 | 11.2 nM | CN1CCC(C(=O)Nc2ccc(CCNc3nc(N)n4nc(-c5ccco5)nc4n3)cc2)CC1 [Example 241, N-(4-(2-((7-Amino-2-(furan-2-yl)-[1,2,4]triazolo[1,5-a][1,3,5]triazin-5-yl)amino)ethyl)-phenyl)-1-methylpiperidine-4-carboxamide]
8 | 10.1 nM | Nc1nc(NCCc2ccc(OCCOCCF)cc2)nc2nc(-c3ccco3)nn12 [Example 245, N5-(4-(2-(2-Fluoroethoxy)ethoxy)phenethyl)-2-(furan-2-yl)-[1,2,4]triazolo[1,5-a][1,3,5]triazine-5,7-diamine]
9 | 19.6 nM | CN(C)CCNc1ccc(CCNc2nc(N)n3nc(-c4ccco4)nc3n2)cc1 [Example 254, N5-(4-((2-(Dimethylamino)ethyl)amino)phenethyl)-2-(furan-2-yl)-[1,2,4]triazolo[1,5-a][1,3,5]triazine-5,7-diamine]
10 | 17.5 nM | Nc1nc(NCCc2ccc(NC(=O)Cc3ccncc3)cc2)nc2nc(-c3ccco3)nn12 [Example 276, N-(4-(2-((7-Amino-2-(furan-2-yl)-[1,2,4]triazolo[1,5-a][1,3,5]triazin-5-yl)amino)ethyl)-phenyl)-2-(pyridin-4-yl)acetamide]
11 | 32.3 nM | CN(CCOc1ccc(CCNc2nc(N)n3nc(-c4ccco4)nc3n2)cc1)Cc1cccnc1 [Example 284, 2-(Furan-2-yl)-N5-(4-(2-(methyl(pyridin-3-ylmethyl)amino)ethoxy)phenethyl)-[1,2,4]triazolo[1,5-a][1,3,5]triazine-5,7-diamine]
12 | 33 nM | CN1CCCN(CCOc2ccc(CCNc3nc(N)n4nc(-c5ccco5)nc4n3)cc2)CC1 [Example 286, 2-(Furan-2-yl)-N5-(4-(2-(4-methyl-1,4-diazepan-1-yl)ethoxy)phenethyl)-[1,2,4]triazolo[1,5-a][1,3,5]triazine-5,7-diamine]
13 | 12.7 nM | Nc1nc(NCCc2ccccn2)nc2nc(-c3ccco3)nn12 [Example 302, 2-(Furan-2-yl)-N5-(2-(pyridin-2-yl)ethyl)-[1,2,4]triazolo[1,5-a][1,3,5]triazine-5,7-diamine]
14 | 163 nM | CN(C)Cc1ccc(CCNc2nc(N)n3nc(-c4ccco4)nc3n2)cc1 [Example 306, N5-(4-((Dimethylamino)methyl)phenethyl)-2-(furan-2-yl)-[1,2,4]triazolo[1,5-a][1,3,5]triazine-5,7-diamine]
15 | 30.4 nM | Nc1nc(NCCc2ccc(OCCN3CC[C@@H](F)C3)cc2)nc2nc(-c3ccco3)nn12 [Example 309, (R)-N5-(4-(2-(3-Fluoropyrrolidin-1-yl)ethoxy)phenethyl)-2-(furan-2-yl)-[1,2,4]triazolo[1,5-a][1,3,5]triazine-5,7-diamine]
16 | 13.8 nM | Nc1nc(NCCc2ccc(NC(=O)CCN3CCC3)cc2)nc2nc(-c3ccco3)nn12 [Example 313, N-(4-(2-((7-Amino-2-(furan-2-yl)-[1,2,4]triazolo[1,5-a][1,3,5]triazin-5-yl)amino)ethyl)-phenyl)-3-(azetidin-1-yl)propanamide]
17 | 15.4 nM | Nc1nc(NCCc2ccc(OCCOCC(F)(F)F)cc2)nc2nc(-c3ccco3)nn12 [Example 314, 2-(Furan-2-yl)-N5-(4-(2-(2,2,2-trifluoroethoxy)ethoxy)phenethyl)-[1,2,4]triazolo[1,5-a][1,3,5]triazine-5,7-diamine]
18 | 11.1 nM | Nc1nc(NCCc2ccc(NCCN3CCOCC3)cc2)nc2nc(-c3ccco3)nn12 [Example 318, 2-(Furan-2-yl)-N5-(4-((2-morpholinoethyl)amino)phenethyl)-[1,2,4]triazolo[1,5-a][1,3,5]triazine-5,7-diamine]
19 | 11.5 nM | Nc1nc(NCCc2ccc(NC(=O)CN3CCOCC3)cc2)nc2nc(-c3ccco3)nn12 [Example 320, N-(4-(2-((7-Amino-2-(furan-2-yl)-[1,2,4]triazolo[1,5-a][1,3,5]triazin-5-yl)amino)ethyl)-phenyl)-2-morpholinoacetamide]
20 | 40.7 nM | CN1CCN(CC(=O)Nc2ccc(CCNc3nc(N)n4nc(-c5ccco5)nc4n3)cc2)CC1 [Example 321, N-(4-(2-((7-Amino-2-(furan-2-yl)-[1,2,4]triazolo[1,5-a][1,3,5]triazin-5-yl)amino)ethyl)-phenyl)-2-(4-methylpiperazin-1-yl)acetamide]
21 | 10.8 nM | CC(C)(C)C(=O)Nc1ccc(CCNc2nc(N)n3nc(-c4ccco4)nc3n2)cc1 [Example 324, N-(4-(2-((7-Amino-2-(furan-2-yl)-[1,2,4]triazolo[1,5-a][1,3,5]triazin-5-yl)amino)ethyl)-phenyl)pivalamide]
22 | 11.9 nM | CC(C)(CO)C(=O)Nc1ccc(CCNc2nc(N)n3nc(-c4ccco4)nc3n2)cc1 [Example 325, N-(4-(2-((7-Amino-2-(furan-2-yl)-[1,2,4]triazolo[1,5-a][1,3,5]triazin-5-yl)amino)ethyl)-phenyl)-3-hydroxy-2,2-dimethylpropanamide]
23 | 10.7 nM | CC(C)(O)C(=O)Nc1ccc(CCNc2nc(N)n3nc(-c4ccco4)nc3n2)cc1 [Example 326, N-(4-(2-((7-Amino-2-(furan-2-yl)-[1,2,4]triazolo[1,5-a][1,3,5]triazin-5-yl)amino)ethyl)-phenyl)-2-hydroxy-2-methylpropanamide]
